Test [1] addresses Muscarinic acetylcholine receptor M3 (Homo sapiens, UniProt P20309).
Test [2] has as its target T1, Muscarinic acetylcholine receptor M2 (Homo sapiens, UniProt P08172).
T1 sequence (P08172 whole entry): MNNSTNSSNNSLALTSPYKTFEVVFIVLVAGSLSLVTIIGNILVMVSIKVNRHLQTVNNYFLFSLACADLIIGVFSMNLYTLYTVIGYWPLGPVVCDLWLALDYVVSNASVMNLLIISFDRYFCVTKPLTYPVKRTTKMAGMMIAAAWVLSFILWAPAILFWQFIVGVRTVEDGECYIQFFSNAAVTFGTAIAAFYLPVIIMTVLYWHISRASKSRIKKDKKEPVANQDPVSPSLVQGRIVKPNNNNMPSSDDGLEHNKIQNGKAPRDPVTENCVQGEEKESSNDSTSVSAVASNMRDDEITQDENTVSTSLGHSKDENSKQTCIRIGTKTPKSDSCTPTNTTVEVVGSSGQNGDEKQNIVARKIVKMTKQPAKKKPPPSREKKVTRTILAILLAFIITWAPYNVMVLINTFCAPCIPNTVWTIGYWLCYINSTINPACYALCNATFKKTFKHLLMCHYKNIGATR

For test [3], the target named is T2, Muscarinic acetylcholine receptor M5 (Homo sapiens, UniProt P08912).
T2 sequence (P08912 whole entry): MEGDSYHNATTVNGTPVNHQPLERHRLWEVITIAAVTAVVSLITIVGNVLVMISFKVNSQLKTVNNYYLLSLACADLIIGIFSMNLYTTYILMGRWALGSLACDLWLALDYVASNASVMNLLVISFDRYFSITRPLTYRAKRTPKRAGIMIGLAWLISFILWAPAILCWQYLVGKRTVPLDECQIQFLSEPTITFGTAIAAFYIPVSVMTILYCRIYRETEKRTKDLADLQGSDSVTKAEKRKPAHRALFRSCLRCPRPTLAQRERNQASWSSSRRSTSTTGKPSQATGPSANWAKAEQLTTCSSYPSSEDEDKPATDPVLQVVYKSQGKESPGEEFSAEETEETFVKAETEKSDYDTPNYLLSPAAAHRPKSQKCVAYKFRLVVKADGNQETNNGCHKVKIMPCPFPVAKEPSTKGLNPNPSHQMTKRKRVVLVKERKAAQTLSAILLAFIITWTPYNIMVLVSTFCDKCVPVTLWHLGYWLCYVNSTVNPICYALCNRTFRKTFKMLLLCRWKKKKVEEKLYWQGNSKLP

Drawing on BindingDB's records for doi:10.1016/S0014-827X(03)00113-7 (Universit&Aagrove, 2003), this text covers Ki for 6 molecules.

Sequence of Muscarinic acetylcholine receptor M3 (P20309 whole entry): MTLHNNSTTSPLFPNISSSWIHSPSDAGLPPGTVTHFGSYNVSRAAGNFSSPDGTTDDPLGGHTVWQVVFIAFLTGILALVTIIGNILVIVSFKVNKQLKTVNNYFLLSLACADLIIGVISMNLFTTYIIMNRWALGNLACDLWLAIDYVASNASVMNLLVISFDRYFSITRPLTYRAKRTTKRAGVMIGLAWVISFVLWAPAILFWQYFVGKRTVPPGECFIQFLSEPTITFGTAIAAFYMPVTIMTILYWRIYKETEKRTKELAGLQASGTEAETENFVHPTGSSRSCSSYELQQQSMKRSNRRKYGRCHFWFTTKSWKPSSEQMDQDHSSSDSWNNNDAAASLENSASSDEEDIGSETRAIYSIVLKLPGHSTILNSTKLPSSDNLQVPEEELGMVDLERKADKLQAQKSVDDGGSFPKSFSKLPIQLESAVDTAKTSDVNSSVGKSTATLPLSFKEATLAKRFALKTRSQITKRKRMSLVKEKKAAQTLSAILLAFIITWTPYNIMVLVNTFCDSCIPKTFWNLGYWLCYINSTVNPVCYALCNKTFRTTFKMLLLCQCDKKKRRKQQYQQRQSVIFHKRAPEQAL

For the molecule `Cc1nccn1CC#CCOc1ccon1` [3-[4-(2-Methyl-1H-imidazol-1-yl)-2-butynyl]oxyisoxazole sesquifumarate], the Ki in test [1] came out at 110 nM; in test [2], 282 nM; in test [3] it was 209 nM.

In the case of `Cc1nccn1CC#CCOC1=NOCC1` [3-[4-(2-Methyl-1H-imidazol-1-yl)-2-butynyl]oxy-delta2-isoxazoline sesquifumarate], the Ki in test [1] amounted to 2.51 nM; in test [2], 3.63 nM; in test [3], 6.17 nM.

Turning to `Cc1n(CC#CCN2OCCC2=O)cc[n+]1C` [2-[4-(2,3-Dimethyl-1H-imidazolium-1-yl)-2-butynyl]isoxazolidin-3-one iodide], the inhibition constant (Ki) was 75.9 nM in test [1], 275 nM in test [2] and 132 nM in test [3].

With `Cc1nccn1CC#CCN1OCCC1=O` [NSC_0], the Ki in test [1] was determined as 102 nM; in test [2] it was 72.4 nM; in test [3], 0.51 nM.

For the molecule `Cc1n(CC#CCOC2=NOCC2)cc[n+]1C` [NSC_0], the values for the Ki in test [1], in test [2] and in test [3] were 6.31 nM, 93.3 nM and 51.3 nM, respectively.

Turning to `Cc1n(CC#CCOc2ccon2)cc[n+]1-c1ccc(Br)cc1` [NSC_0], the Ki in test [1] was found to be 17 nM; in test [2], 112 nM; in test [3] it was 60.3 nM.
